The values below come from patent publication US8975259B2, “Compositions and methods for inhibiting G protein signaling” (University of Rochester, priority 2007, dated 2015).

One may read the pIC50 as −log10 of the IC50, conventionally taken in molar units. As a reminder, the IC50 is the concentration that gives 50% inhibition.

The target of experiment [1] is Gβ1γ2 (UniProt P54311+P63212). The experiment can be described thus: Competition phage ELISA: inhibition of SIGK-phage binding to immobilized biotinylated Gβ1γ2. On the set-up: made in house; host or cells: Sf9 insect cells (baculovirus; co-expressed with BirA and (His)6-Gαi1, from which βγ was eluted); species or system rat. As for the experimental part: Phage ELISA assays used to assess peptide binding to wild-type and mutant b-βγ were performed according to standard methods (Smrcka and Scott (2002) Methods Enzymol. 344:557-76). Briefly, 1 μg streptavidin was immobilized in the well of a […] overnight at 4° C. The wells were blocked with 100 μL of 2% bovine serum albumin (BSA) in Tris-buffered saline (TBS) for 1 hour at 4° C. followed by three washes of IX TBS/0.5% TWEEN®. […] The wells were washed, followed by the addition of IxIO^6 to IxIO^10 phage particles and incubated at 4° C. for 3 hours. The wells were then washed six times with TBS/0.5% TWEEN® followed by addition of 40 μL of 1:5000 dilution of anti-M13 antibody (Pharmacia, Uppsala, Sweden) and incubated at room temperature for 1 hour. The wells were washed, followed by the addition of 40 μL of (2,2′-Azino-bis (3-ethylbenzthiazoline)-6-sulfonic acid (ABTS) and the colorimetric reaction was monitored at 405 nm. Nonspecific binding was subtracted for each reading.
A phage ELISA assay was used to determine whether small molecules identified in the computational screen could interact with the Gβy protein interaction surface. […] The screen was based on a reduction in the optical density (OD) of wells containing Gβγ subunits and phage. […] Three background wells contained no βy subunits.
As disclosed herein, biotinylated Gβy subunits were immobilized on the surface of a 96-well plate coated with streptavidin, phage displaying Gβγ-binding peptides were subsequently added and binding in the presence and absence of test compounds detected with an anti-phage antibody.
The phage ELISA assay was used to rapidly screen the ability of compounds to bind to the protein interaction “hot spot” based on the method of Scott et. al (Scott et al., 2001). This assay is performed in the presence of detergent (0.5% Tween) to eliminate non-specific compound aggregation artifacts.
Compounds/DMSO and 0.1×10^10 phage were added simultaneously and subsequently incubated for 1 h at room temperature. Plates were then washed with 1× Tris-buffered saline/0.5% Tween 20 and incubated with anti-M13, HRP-conjugated antibody (Amersham, Chalfont St. Giles, Buckinghamshire, UK). Phage binding was determined by monitoring A405 upon addition of 2,2′-azino-bis(3-ethylbenzothiazoline-6-sulfonic acid) (Sigma Aldrich).

Experiment [2] has as its system differentiated HL60 cells. The experiment can be described thus: fMLP-induced chemotaxis of differentiated HL60 cells (Boyden chamber). The class given is cell-based, human. The settings on record: 10 μM compound, 250 nM fMLP; result in words. As for the experimental part: Same as A with purified human neutrophils.
Differentiated HL60 cells (200 k) were pretreated with 10 μM concentrations of the indicated compound, challenged with 250 nM fMLP, and assayed for chemotaxis in a Boyden chamber for 1 h at 37° C. […] Chemotaxis was quantified as above by subtracting out background cells (0-10 cells) in the absence of chemoattractant to obtain total transmigrated cells (−100 cells GM-CSF+vehicle) and represented as the percentage of GM-CSF-treated control cells. No statistically significant difference from control was seen by ANOVA. […] Primary human neutrophils were isolated from whole blood to ≧80% purity. Neutrophils (2×10^5) were pretreated with gallein (10 μM), M119 (10 μM), M119B (10 μM), or wortmannin (wtmn.) (1 μM) and then challenged with 250 nM fMLP or 10 nM IL-8 to evaluate chemotaxis in a Boyden chamber for 1 h at 37° C. […] NS, not statistically different from control. […] Primary human neutrophils were isolated and treated (250 nM fMLP±gallein) as described above. Chemotaxis was quantified as above by subtracting out background cells to obtain total transmigrated cells and represented as the percentage of fMLP-treated control cells. Data shown are pooled from two independent experiments, each in duplicate, ±S.E.M.
Chemotaxis was assayed using a Boyden chamber (Neuro Probe, Gaithersburg, Md.) using 3-μm polyvinylpyrrolidone-free polycarbonate filters (Neuro Probe). HL60 cells (differentiated for 4 days) were washed with and resuspended in HBSS containing 1% bovine serum albumin to a final concentration of 1×10^6 cells/ml. Primary human neutrophils were washed and resuspended in NaCl buffer (140 mM NaCl, 4 mM KCl, 10 mM D-glucose, 10 mM HEPES, pH 7.4, 1 mM MgCl2, and 1 mM CaCl2) to a final concentration of 1×10^6 cells/mi. Chemoattractant [1 μM granulocyte-macrophage-colony stimulating factor (GM-CSF), 10 nM IL-8, or 250 nM fMLP; Sigma Aldrich] was added to the bottom chamber in HBSS containing 1% bovine serum albumin.

Experiment [3] deals with isolated adult mouse cardiomyocytes. The experiment can be described thus: Contractility of isolated adult mouse cardiomyocytes. The settings on record: result in words. Format: cell-based. As for the experimental part:
Pretreatment with the general β-AR antagonist, propranolol, abolishes the effects of M119 and Iso on cardiomyocyte contractility.
The above data led to investigations that M119 plays a positive functional role in the heart, due in part to its inhibition of Gβγ-GRK2 interactions. Prior to pursuing in vivo studies with M119, the role of M119 affecting contractility was evaluated by assessment of isolated adult mouse cardiomyocyte contractility at baseline and in response to β-AR stimulation.
Mechanical properties of ventricular myocytes are assessed by an IonOptix Myocam system (IonOptix Inc., Milton, Mass., U.S.A.). Myocytes are superfused (at 25° C.) with Tyrodes, cells are pre-loaded in culture medium for 20 minutes with Fura-2, for concurrent calcium flux and myocyte contractility following field stimulation at 0.5 Hz.

SMILES strings stand for the structures. pIC50: −log10 of the molar value. Entries after “also recorded” stand apart in the source; their conditions may differ. Read-outs that look alike come from different tables or passages of the source.

Regarding `O=C(O)c1ccccc1-c1c2ccc(=O)c(O)c-2oc2c(O)c(O)ccc12` (racemic) [Gallein], the pIC50 in experiment [1] is 6.70. Moreover, in experiment [2], the “effect on fMLP-induced chemotaxis” value is listed as “inhibited”. Further, the “effect on cardiomyocyte contractility at baseline and with isoproterenol” value (shortened to “effect on cardiomyocyte contractility”) in experiment [3] is “significant positive effects”.

In the case of `O=C(O)C1CCCCC1c1c2ccc(=O)c(O)c-2oc2c(O)c(O)ccc12` (stereo not drawn) [Compound M119, cyclohexanecarboxylic acid, 2-(4,5,6-trihydroxy-3-oxo-3H-xanthen-9-yl)-(9cl)], the pIC50 was 6.70 in experiment [1] (ELISA, Table 19); 7.00 in experiment [1] (IC50, Table 8, last row); 6.70 in experiment [1] (IC50 in phage ELISA (SIGK competition)). Moreover, in experiment [1] (IC50 μM, Table 18, compounds identified in Elisa screen), the IC50 came to 0.2 µM. For the same compound, the “effect on fMLP-induced chemotaxis” value in experiment [2] is reported as “significantly blunted migration; also recorded: inhibited”. Besides, the “effect on cardiomyocyte contractility” value in experiment [3] is given as “enhanced”.

For `O=C(O)C1CCCCC1c1c2ccc(=O)cc-2oc2cc(O)ccc12` (stereo not drawn) [Compound M119B], the “apparent affinity for Gβ1γ2 relative to M119” value in experiment [1] was 1/1000. The “effect on fMLP-induced chemotaxis” value in experiment [2] is “no effect on migration”. Moreover, in experiment [3], the “effect on cardiomyocyte contractility” value is reported as “no effect”.
